The source of these data is patent US9606124B2, “Methods of detecting and treating stem-cell containing solid tumors” (The Regents of The University of Michigan, priority 2008, dated 2017).

Entries after “also recorded” stand apart in the source; their conditions may differ.

For assay [1], the system named is ALDEFLUOR-positive population of SUM159 cell line. The assay is described as follows: ALDEFLUOR assay on SUM159 cells in vitro (cancer stem cell population). Type of assay: cell-based, human. How it is done: ALDEFLUOR Assay and Separation of the ALDH-positive Population by FACS. ALDH activity was assessed in 33 BCLs representing the main molecular subtypes of human breast cancer. The ALDEFLUOR kit (StemCell technologies, Durham, N.C., USA) was used to isolate the population with high ALDH enzymatic activity (17). Cells obtained from subconfluent cell lines after trypsinization or from freshly dissociated xenografts were suspended in ALDEFLUOR assay buffer containing ALDH substrate (BAAA, 1 μmol/l per 1×10^6 cells) and incubated for 40 minutes at 37° C. In each experiment a sample of cells was stained under identical conditions with 50 mmol/L of diethylaminobenzaldehyde (DEAB), a specific ALDH inhibitor, as negative control. Flow cytometry sorting was conducted using a FACStarPLUS (Becton Dickinson). ALDEFLUOR fluorescence was excited at 488 nm and detected using standard fluorescein isothiocyanate (FITC) 530/30 band pass filter. For xenotransplanted tumors, incubation with an anti-H2Kd antibody (BD biosciences, 1/200, 20 min on ice) followed by a secondary antibody labeled with phycoerythrin (Jackson labs, 1/250, 20 min on ice) was used to eliminate cells of mouse origin. The sorting gates were established using PI stained cells for viability, ALDEFLUOR-stained cells treated with DEAB, and those stained with secondary antibody alone. Prior to RNA profiling or NOD/SCID mice injection, the purity of sorted populations was checked using double sorting of 10,000 ALDEFLUOR-positive and negative cells in BrCa-MZ-01 and SUM159 cell lines.
ALDEFLUOR assay. […] In order to eliminate cells of mouse origin from the xenotransplanted tumors, cell population was stained with an anti-H2Kd antibody (BD biosciences, 1/200, 20 min on ice) followed by staining with a secondary antibody labeled with phycoerythrin (PE) (Jackson labs, 1/250, 20 min on ice).

For the next assay, the system named is HCC1954 cells. Briefly: MTT assay, cell viability of HCC1954 cells. The assay is classed as cell-based, human. As to conditions: repertaxin 100 nM, antibodies 10 μg/ml. The source says:
(§1) Cell viability. […] Nuclei were counterstained with DAPI/antifade (Invitrogen).

A further assay concerns SUM159 cells. Briefly: TUNEL assay, apoptotic cells. Type of assay: cell-based, human. Conditions: 4 days of treatment. The source says: Cell viability. […] After one day, treatment with repertaxin was started. […]. […] Nuclei were counterstained with DAPI/antifade (Invitrogen).
The subject of assay [2] is FAK Tyr397 and AKT Ser473 phosphorylation. The assay is described as follows: Western blotting of FAK/AKT activation in HCC1954. As to conditions: 100 nM, two days. Type of assay: cell-based, human. On the procedure:
(§2) Western blotting. Cells were lysed in a laemmli buffer and loaded onto SDS-polyacrylamide gels. Blots were incubated with the respective primary antibodies diluted in TBST (containing 0.1% Tween20 and 2% BSA) either overnight at 4o, or 2 hours at room temperature. Blots were washed and incubated with appropriate secondary antibodies (GE Healthcare, UK) and detected using SuperSignal West Pico Chemiluminescent Substrate (Pierce).
(In general: A western blot detects proteins with antibodies after separation by electrophoresis.)

The test system of the next assay is HCC1954 PTEN-siRNA cells. The assay is described as follows: Repertaxin on HCC1954 PTEN-siRNA cells (western, MTT). Type of assay: cell-based, human. How it is done: as §1, §2
Virus infection. […] All lentiviral constructs were prepared by the University of Michigan Vector. An adenoviral construct for the overexpression of FAK (Ad-FAK-GFP) was also utilized (Luo et al. Cancer Res. 69:466-474, herein incorporated by reference in its entirety). Cells infection with different vectors was performed as previously described (Charafe-Jauffret et al. Cancer Res. 69:1302-1313, herein incorporated by reference in its entirety). Efficiency of infection was verified by measuring the percentage of DsRed or GFP expressing cells.

Assay [3] has as its system SUM159 cell line and human breast cancer xenografts MC1, UM2, UM3. Briefly: Tumor growth of breast cancer xenografts in the mammary fat pad. The assay is classed as in vivo, NOD/SCID mice. As to conditions: repertaxin 15 mg/Kg s.c. twice a day 28 days, docetaxel 10 mg/Kg i.p. once a week, start at tumor size about 4 mm. How it is done: For each sample, 50,000 cells were injected into the mammary fat pad of NOD-SCID mice which were monitored for tumor size. Injections were started when the tumor size was about 4 mm.
(§3) Animal model. […] Cells from these tumors were transplanted orthotopically in the humanized cleared fat-pad of NOD/SCID mice, without cultivation in vitro. […] 50,000 cells from each xenotransplants were injected in the humanized fat pad of NOD/SCID mice and monitored the tumor growth. […] The animals were euthanized when the tumors were approximately 1.5 cm in the largest diameter, to avoid tumor necrosis and in compliance with regulations for use of vertebrate animal in research. A portion of each fat pad injected was fixed in formalin and embedded in paraffin for histological analysis. The rest of the tumor cells were re-implantated into secondary NOD/SCID mice. Serial dilutions of cells were utilized for the re-implantation with injection of 10,000, 1,000, and 100 cells for each treated tumor.

In assay [4] the test system is CD44+/CD24- cell population of MC1, UM2, UM3 xenografts. Briefly: CD44+/CD24- cells in treated tumors (flow cytometry). As to conditions: mouse, in vivo. Set-up: species or system NOD/SCID mice. On the procedure:
as §3
Flow cytometry analysis. […] CD95/FAS staining were performed utilizing an anti-CD95 labeled APC (1:20, BD biosciences). […] Fresh cells were stained with 1 μg/ml PI (Sigma) for 5 min for viability.
(A flow cytometer gives signals particle by particle.)

The next assay relates to phospho-AKT. Briefly: Immunohistochemistry of phospho-AKT in xenotransplants. Set-up: species or system NOD/SCID mice. As to conditions: mouse, in vivo. How it is done:
(§4) Immunostaining. For immunofluorescent staining, sorted CXCR1-positive cells were fixed with 95% methanol at −20° C. for 10 minutes. Cells were rehydrated in PBS and incubated with respective antibodies at room temperature for 1 hour. Primary antibodies used were P-FAK (1:50, Cell Signaling Technology), P-AKT (1:300, Cell Signaling Technology), and FOXO3a (1:250, Cell Signaling Technology). Slides were then washed and incubated 30 minutes with PE conjugated secondary antibodies (Jackson labs). The nuclei were counterstained with DAPI/antifade (Invitrogen) and coverslipped. […] Immunohistochemistry for the detection of ALDH1 (1:100, BD biosciences), P-FAK, P-AKT, FOXO3a expression was done on paraffin section (Ginestier et al. Am. J Pathol. 161:1223-1233, herein incorporated by reference in its entirety). Staining was done utilizing the Histostainplus kit (Zymed laboratories). Diaminobenzidine (DAB) or 3-amino-9-ethylcarbazole (AEC) was used as chromogen and sections were counterstained with hematoxylin.

A further assay relates to ALDH1. Briefly: Immunohistochemistry of ALDH1 in xenotransplants. The assay is classed as in vivo, NOD/SCID mice. Conditions: compared to untreated tumors. On the procedure:
as §4

Another assay concerns SUM159 cell line. Briefly: MTT assay, cell growth / cell viability of SUM159 cells. On the technique in general: Tetrazolium assays rely on reduction of a dye to a coloured formazan, in cell work by metabolically active cells.

Consider `CC(C)Cc1ccc([C@@H](C)C(=O)NS(C)(=O)=O)cc1` [Repertaxin], for which, in assay [1] (SUM159, repertaxin, repertaxin plus anti-FAS-ligand, FAS agonist), the “percent of ALDEFLUOR-positive cells” value was “massive decrease”. Besides, in assay [1] (SUM159, three days, repertaxin 100 nM, antibodies 10 μg/ml), the “proportion of ALDEFLUOR-positive cells” value was “five-fold reduction; also recorded: significant reduction”. Moreover, the “decrease of the ALDEFLUOR-positive population” value in assay [1] (SUM159 adherent, 4 days of treatment) amounted to 80%. For the same compound, the “cell viability (MTT)” value with HCC1954 cells is given as “decrease in cell viability was observed after 3 days of treatment; also recorded: significant reduction”. Moreover, the “apoptotic cells (TUNEL)” value in the assay with SUM159 cells worked out at 36%. For the same compound, the “FAK Tyr397 and AKT Ser473 phosphorylation (western blot)” value in [2] was “decrease in FAK Tyr397 and AKT Ser473 phosphorylation”; in assay [2] (listed as repertaxin), “decrease in FAK Tyr^397 and AKT Ser^473 phosphorylation”. Besides, the “FAK and AKT activity in HCC1954 PTEN-siRNA cells (western blot)” value with HCC1954 PTEN-siRNA cells (100 nM, two days) is “PTEN deletion blocked the effect of repertaxin treatment”. Besides, the “cell viability (MTT) of HCC1954 PTEN-siRNA cells” value with HCC1954 PTEN-siRNA cells (3 days of treatment) was “developed resistance to repertaxin”. Further, the results for the “tumor size / tumor growth compared to the control” value in assay [3], in assay [3] (listed as Reperataxin) and in [3] (listed as repertaxin) were “moderate impact on tumor growth”, “no significant difference” and “no difference”, respectively. Further, in assay [4], the “percent of CD44+/CD24- cells in residual tumors” value is recorded as “reduction”. Also, the “cells expressing phospho-AKT in treated tumors” value with phospho-AKT is recorded as “complete inhibition; also recorded: no expression was detected”. In the assay on ALDH1, the “ALDH1-positive cells / ALDH1 expression in treated tumors” value is “decrease in ALDH1-positive cells; also recorded: decrease of ALDH1 expression”. Besides, the viability at 0.1 µM in the assay with SUM159 cell line (Homo sapiens, SUM159, 120 h, read-out: cells remaining viable / cell viability (MTT)) came to 3%. Further, the “cell viability over time (one, three, five days)” value in the assay on SUM159 cell line (SUM159, repertaxin 100 nM) is given as “loss of cell viability beginning three days after treatment; also recorded: decrease in cell viability was observed after 3 days of treatment”.
